{"source": "patent US20020031483A1", "about": "“HAIR TREATMENT COMPOSITION COMPRISING A SUGAR OR CARBOHYDRATE FOR THE PURPOSES OF PARTICIPATING IN OXYGEN CONSUMPTION OF A HAIR METHOD AND USE” (priority 1998, published 2002)", "key": {"human hair follicles [1]": {"system": "human hair follicles", "assay": "Evolution of radiolabelled CO2 from radiolabelled substrate by cultured hair follicles", "assay_type": "cell-based", "conditions": "five follicles per tube, 37° C.", "description": "Hair follicles were isolated from human scalp skin obtained from four different female subjects; hair follicles were isolated from human scalp skin and placed into a 6 well culture plate at a density of 15 follicles/well in 5 mL complete Williams E medium containing penicillin (50 μg/mL), streptomycin (50 IU/mL), L-glutamine (2 mM), hydrocortisone (10 ng/mL) and insulin (10 μg/mL). In addition a cocktail of amino acids consisting of arginine (0.45 mM) proline (1 mM), glycine (2.6 mM) and alanine (1 mM) was also added since these are though to improve the maintenance of hair follicles in vitro. After an overnight incubation (37° C., 5% CO2 in air) to ensure continued growth following the isolation procedure, follicles were cut to a uniform length and incubated until required.\nFor each experimental time point, five follicles were transferred to each of 3 eppendorf tubes in triplicate with 10 μL medium. […] After the seals had been removed the medium was sampled for counting the remaining radioactivity (3×10 μL). The KOH solution was analysed by liquid scintillation counting (Beckman LS 60001C) after addition of 18 mL Hionic Fluor (Packard).\nResults from the mean of each triplicate control were subtracted from the corresponding mean from the experimental results. These combined results were then analysed by regression. […]"}, "human hair follicles [2]": {"system": "human hair follicles", "assay": "tissue or blood", "assay_type": "cell-based", "conditions": "read-out: inhibition of oxygen consumption by the follicles", "protocol": "Follicles were isolated from human facelift skin and grown in culture according to the methods described (Philpott et al J.Cell.Sci.97: pp 463-470 1990). For the oxygen consumption experiments a Clarke electrode apparatus (Tank Brothers Limited, Cambridge, England) was used.\nThe equipment was set up in accordance with the manufacturers instructions, the temperature of the cell being maintained at 37° C. using a circulating water bath. The output of the electrode was recorded using Perkin Elmer Turbochrom 4 data logging software.\nThe apparatus contains a Teflon membrane in the cell which was changed daily and the cell calibrated and prepared for use as follows. […] After recording this new ‘zero oxygen’ baseline the medium was reoxygenated by bubbling air through and the new baseline recorded. […]\nAfter calibration, a fresh 2 ml sample of William's E medium gassed with 5% carbon dioxide in air was added, the plunger inserted into the cell ensuring that no air bubble was trapped, and the output from the cell recorded to give a rate for oxygen consumption of the cell. […] The new rate of oxygen consumption was recorded for a sufficient time as to enable its accurate determination. […]\nFrom the calibration of the electrode, a curve was derived from which a baseline reading corresponding to zero oxygen level could be derived. […]"}}, "note": "“Also recorded” adds a separate entry of the source. Structures can show the parent of a compound that is named as a salt.", "data": [{"compound": "O=C(O)CC(O)(CC(=O)O)C(=O)O", "note": "[citrate, [1,5-^14C]-sodium citrate]", "values": [{"measurement": "average production of CO2 evolved from metabolism of citrate", "setting": "human hair follicles [1]; [1,5-14C]-sodium citrate, about 3 μCi in 100 μL medium, up to 12 h", "result": "0.23 (±0.04) μmol CO2"}, {"measurement": "uptake and metabolism by hair follicles (radiolabelled CO2 evolution), result in words", "setting": "human hair follicles [1]; radiolabelled substrate in medium", "result": "linear increase in the amount of CO2 evolved; also recorded: taken up into hair follicles and used as an energy source"}]}, {"compound": "[N-]=[N+]=[N-]", "note": "[sodium azide]", "values": [{"measurement": "inhibition at 2000 µM", "setting": "human hair follicles [2]", "result": "54 to 87", "unit": "%"}]}, {"compound": "C[C@]12CC[C@H]3[C@@H](CC[C@]4(O)C[C@@H](O)CC[C@]34C=O)[C@@]1(O)CC[C@@H]2C1=CC(=O)OC1", "note": "[strophanthidin, Strophanthidin]", "values": [{"measurement": "inhibition at 100 µM", "setting": "human hair follicles [2]; 0.1 mM strophanthidin, 160 follicles in 2 ml medium, 37° C.", "result": 76, "unit": "%"}]}]}
